Earlier results on one molecule are cited in patent publication US20030109512A1, “Use of 4-androstenediol and 4-androstenediol in a transdermal formulation to increase testosterone levels in humans” (priority 2001, published 2003).

The subject of the data set is estrogen levels. As to conditions: some studies indicate.

Molecules are shown by their SMILES.

`C[C@]12CCC(=O)C=C1CC[C@@H]1[C@@H]2CC[C@]2(C)C(=O)CC[C@@H]12` [androstenedione]: the “effect on estrogen levels” value was “causes elevation of estrogen levels”.
